From ChEMBL document CHEMBL5046290, “Design, Synthesis, and Preclinical Profiling of GSK3739936 (BMS-986180), an Allosteric Inhibitor of HIV-1 Integrase with Broad-Spectrum Activity toward 124/125 Polymorphs” (J Med Chem, 2022)

Assays:
[1] = Permeability of the compound at pH 7.4 by PAMPA assay; format: ADME; conditions: read-out: permeability
[2] = Toxicity in rat assessed as histological changes in adrenal gland at 500 mg/kg/day; format: organism-based; conditions: in vivo
[3] = Cytotoxicity against human MT2 cells assessed as cell viability measured after 4 days by XTT assay; format: toxicity, cell-based; conditions: time 4 day
[4] = Metabolic stability in human liver microsome assessed half life at 0.5 uM by LC-MS/MS analysis; format: ADME; conditions: liver microsomes
[5] = Clearance in Sprague-Dawley rat at 1 mg/kg, iv by LC-MS/MS analysis; format: ADME, organism-based; conditions: in vivo
[6] = tested on: Human immunodeficiency virus 1; assay: Antiviral activity against recombinant HIV1 NLRep-Rluc harbouring polymorphic AA infected in human MT-2 cells assessed as inhibition of virus growth in presence of fetal bovine serum by measuring luciferase activity after 5 days; format: functional, organism-based; conditions: Human immunodeficiency virus 1, NLRep, MT2, 120 h
[7] = tested on: Human immunodeficiency virus 1; assay: Antiviral activity against recombinant HIV1 NLRep-Rluc harbouring polymorphic TA infected in human MT-2 cells assessed as inhibition of virus growth in presence of fetal bovine serum by measuring luciferase activity after 5 days; format: functional, organism-based; conditions: Human immunodeficiency virus 1, NLRep, MT2, 120 h
[8] = Plasma protein binding in monkey; format: ADME, cell-free, Macaca mulatta; conditions: rhesus monkey, read-out: PPB (converted)
[9] = Solubility of the compound using amorphous form of sample; format: physicochemical
[10] = Stability in pH 7.4 for 2 weeks at 50 degC; format: physicochemical; conditions: buffer, pH 7.4, 336 h
[11] = Stability in pH 1 for 2 days at 50 degC; format: physicochemical; conditions: buffer, pH 1, 48 h; time 2 day
[12] = Permeability of the compound at pH 5.5 by PAMPA assay; format: ADME; conditions: read-out: permeability
Cytochrome P450 1A2 = target: T1, Cytochrome P450 1A2 (Homo sapiens, UniProt P05177); assay: Inhibition of human CYP1A2; format: ADME
T1 sequence (P05177 whole entry): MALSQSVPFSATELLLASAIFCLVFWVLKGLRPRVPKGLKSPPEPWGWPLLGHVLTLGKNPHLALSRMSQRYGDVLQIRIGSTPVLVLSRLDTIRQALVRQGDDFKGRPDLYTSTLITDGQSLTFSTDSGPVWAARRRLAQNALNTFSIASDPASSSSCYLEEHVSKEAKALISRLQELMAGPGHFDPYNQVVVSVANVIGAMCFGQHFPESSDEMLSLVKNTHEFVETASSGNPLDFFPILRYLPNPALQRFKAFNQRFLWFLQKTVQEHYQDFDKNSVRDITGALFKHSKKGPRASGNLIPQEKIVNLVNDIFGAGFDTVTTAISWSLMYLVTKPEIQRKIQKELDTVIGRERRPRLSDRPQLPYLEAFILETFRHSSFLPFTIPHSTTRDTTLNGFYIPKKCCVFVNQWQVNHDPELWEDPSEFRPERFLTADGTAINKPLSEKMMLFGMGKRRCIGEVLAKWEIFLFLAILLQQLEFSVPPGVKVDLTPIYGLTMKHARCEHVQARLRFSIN

Cytochrome P450 2D6 = Cytochrome P450 2D6 (Homo sapiens, UniProt P10635); assay: Inhibition of human CYP2D6; format: ADME
Cytochrome P450 3A4 = Cytochrome P450 3A4 (Homo sapiens, UniProt P08684); assay: Inhibition of human CYP3A4; format: ADME
[13] = Clearance in CD-1 mouse at 1 mg/kg, iv by LC-MS/MS analysis; format: ADME, organism-based; conditions: in vivo
CYP = assay: Half life in monkey assessed as CYP mediated metabolism in presence of […] by phase I metabolic oxidation assay; format: ADME, Macaca mulatta; conditions: rhesus monkey
UGT [14] = assay: Metabolic stability assessed as rat UGT-mediated metabolism by measuring half life by phase II UGT conjugation assay; format: ADME
UGT [15] = assay: Metabolic stability assessed as dog UGT-mediated metabolism by measuring half life by phase II UGT conjugation assay; format: ADME, Canis lupus familiaris
UGT [16] = target: UGT (Homo sapiens, UniProt O60656+O75310+O75795+P06133+P0DTE4+P0DTE5+P16662+P19224+P22309+P22310+P35503+P35504+P36537+P54855+Q6UWM9+Q9BY64+Q9HAW7+Q9HAW8+Q9HAW9); assay: Metabolic stability assessed as human UGT-mediated metabolism by measuring half life by phase II UGT conjugation assay; format: ADME, protein assay
[17] = Clearance in Cynomolgus monkey at 1 mg/kg, iv by LC-MS/MS analysis; format: ADME, organism-based, Macaca fascicularis; conditions: in vivo
[18] = Elimination half life in CD-1 mouse at 1 mg/kg, iv by LC-MS/MS analysis; format: ADME, organism-based; conditions: in vivo, read-out: beta t1/2 (converted)
[19] = Elimination half life in Sprague-Dawley rat at 1 mg/kg, iv by LC-MS/MS analysis; format: ADME, organism-based; conditions: in vivo, read-out: beta t1/2 (converted)
[20] = Volume of distribution at steady state in CD-1 mouse at 1 mg/kg, iv by LC-MS/MS analysis; format: ADME, organism-based; conditions: in vivo, read-out: Vdss
[21] = Volume of distribution at steady state in Cynomolgus monkey at 1 mg/kg, iv by LC-MS/MS analysis; format: ADME, organism-based, Macaca fascicularis; conditions: in vivo, read-out: Vdss
[22] = Volume of distribution at steady state in Beagle dog at 1 mg/kg, iv by LC-MS/MS analysis; format: ADME, organism-based, Canis lupus familiaris; conditions: in vivo, read-out: Vdss
[23] = Cmax in Beagle dog at 2 mg/kg, po by LC-MS/MS analysis; format: ADME, organism-based, Canis lupus familiaris; parameters: route oral, dose 2 mg/kg; conditions: in vivo
[24] = Tmax in Sprague-Dawley rat at 5 mg/kg, po by LC-MS/MS analysis; format: ADME, organism-based; conditions: in vivo
[25] = Tmax in cynomolgus monkey at 2 mg/kg, po by LC-MS/MS analysis; format: ADME, organism-based, Macaca fascicularis; conditions: in vivo
[26] = AUC in CD-1 mouse at 5 mg/kg, po by LC-MS/MS analysis; format: ADME, organism-based; parameters: dose 5 mg/kg; conditions: in vivo
[27] = AUC in cynomolgus monkey at 2 mg/kg, po by LC-MS/MS analysis; format: ADME, organism-based, Macaca fascicularis; parameters: dose 2 mg/kg; conditions: in vivo
[28] = AUC in Beagle dog at 2 mg/kg, po by LC-MS/MS analysis; format: ADME, organism-based, Canis lupus familiaris; parameters: dose 2 mg/kg; conditions: in vivo
[29] = Oral bioavailability in Sprague-Dawley rat at 5 mg/kg by LC-MS/MS analysis; format: ADME, organism-based; conditions: in vivo
[30] = Toxicity in dog assessed as vomiting at >=100 mg/kg, po administered as single dose; format: organism-based, Canis lupus familiaris; conditions: in vivo
L-type calcium channel = L-type calcium channel (Homo sapiens, UniProt O60840+Q01668+Q13698+Q13936); assay: Inhibition of calcium channel, Type L (unknown origin) at 10 uM; format: toxicity
sodium channel = assay: Inhibition of sodium channel (unknown origin) at 10 uM; format: toxicity; conditions: human
[31] = target: Voltage-gated inwardly rectifying potassium channel KCNH2 (Homo sapiens, UniProt Q12809); assay: Inhibition of hERG; format: toxicity
[32] = Toxicity in rat assessed as maximum tolerated dose; conditions: in vivo
[33] = Toxicity in rat assessed as change in parathyroid gland at 500 mg/kg/day; format: organism-based; conditions: in vivo
[34] = Toxicity in rat assessed as histological changes in spleen at 500 mg/kg/day; format: organism-based; conditions: in vivo
[35] = Toxicity in rat assessed as histological changes in lymph node at 500 mg/kg/day; format: organism-based; conditions: in vivo
[36] = Cardiotoxicity in dog heart assessed as change in electrocardiographic parameter upto 128 uM of plasma concentration; format: toxicity, Canis lupus familiaris
[37] = Cardiotoxicity in dog heart assessed as decrease in blood pressure at 300 mg/kg; format: toxicity, organism-based, Canis lupus familiaris; parameters: scale not given: the % may be the effect or the level left; conditions: in vivo

Chain of Cytochrome P450 3A4 (P08684 whole entry): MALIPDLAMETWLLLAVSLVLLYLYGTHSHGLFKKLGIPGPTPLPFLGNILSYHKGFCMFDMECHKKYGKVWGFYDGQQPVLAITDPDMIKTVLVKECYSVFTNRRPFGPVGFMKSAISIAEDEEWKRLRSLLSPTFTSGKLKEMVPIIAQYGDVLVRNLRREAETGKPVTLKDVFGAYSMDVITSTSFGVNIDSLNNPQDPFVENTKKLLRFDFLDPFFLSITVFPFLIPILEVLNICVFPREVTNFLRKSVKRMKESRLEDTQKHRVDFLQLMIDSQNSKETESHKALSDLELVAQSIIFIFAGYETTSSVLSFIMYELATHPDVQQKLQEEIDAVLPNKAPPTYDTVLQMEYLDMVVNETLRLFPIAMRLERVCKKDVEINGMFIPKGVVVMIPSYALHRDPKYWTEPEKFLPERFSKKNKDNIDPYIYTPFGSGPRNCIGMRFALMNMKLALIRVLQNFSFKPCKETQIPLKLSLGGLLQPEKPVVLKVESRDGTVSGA
Chain of Voltage-gated inwardly rectifying potassium channel KCNH2 (Q12809 whole entry): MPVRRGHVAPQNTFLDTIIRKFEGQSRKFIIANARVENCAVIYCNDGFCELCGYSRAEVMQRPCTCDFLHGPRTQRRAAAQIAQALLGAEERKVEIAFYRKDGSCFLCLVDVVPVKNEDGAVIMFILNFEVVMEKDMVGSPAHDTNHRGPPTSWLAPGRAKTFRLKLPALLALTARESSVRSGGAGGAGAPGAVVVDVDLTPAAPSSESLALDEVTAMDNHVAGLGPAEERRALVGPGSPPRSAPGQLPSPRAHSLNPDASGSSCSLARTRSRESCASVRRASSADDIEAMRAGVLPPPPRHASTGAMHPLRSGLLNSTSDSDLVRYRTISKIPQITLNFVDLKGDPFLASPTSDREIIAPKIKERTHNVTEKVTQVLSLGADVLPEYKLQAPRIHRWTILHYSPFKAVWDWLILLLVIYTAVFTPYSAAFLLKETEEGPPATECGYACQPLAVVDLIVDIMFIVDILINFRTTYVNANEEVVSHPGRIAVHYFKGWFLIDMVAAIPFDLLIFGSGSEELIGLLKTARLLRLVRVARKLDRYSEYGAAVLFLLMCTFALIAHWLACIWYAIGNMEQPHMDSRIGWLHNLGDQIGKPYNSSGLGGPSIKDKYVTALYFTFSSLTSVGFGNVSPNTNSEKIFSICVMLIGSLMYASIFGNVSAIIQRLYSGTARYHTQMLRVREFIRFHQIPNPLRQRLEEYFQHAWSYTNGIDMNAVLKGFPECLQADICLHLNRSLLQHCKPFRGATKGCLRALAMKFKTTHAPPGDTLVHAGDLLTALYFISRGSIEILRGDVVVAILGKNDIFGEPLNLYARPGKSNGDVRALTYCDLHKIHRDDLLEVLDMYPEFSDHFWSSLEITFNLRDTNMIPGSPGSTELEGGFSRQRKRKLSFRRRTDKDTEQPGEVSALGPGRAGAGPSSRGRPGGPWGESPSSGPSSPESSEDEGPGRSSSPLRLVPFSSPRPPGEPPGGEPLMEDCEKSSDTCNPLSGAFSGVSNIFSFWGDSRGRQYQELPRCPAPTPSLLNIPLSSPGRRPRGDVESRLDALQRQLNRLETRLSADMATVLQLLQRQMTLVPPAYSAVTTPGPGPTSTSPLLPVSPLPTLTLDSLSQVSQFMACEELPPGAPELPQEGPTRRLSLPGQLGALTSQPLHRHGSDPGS
Chain of Cytochrome P450 2D6 (P10635 whole entry): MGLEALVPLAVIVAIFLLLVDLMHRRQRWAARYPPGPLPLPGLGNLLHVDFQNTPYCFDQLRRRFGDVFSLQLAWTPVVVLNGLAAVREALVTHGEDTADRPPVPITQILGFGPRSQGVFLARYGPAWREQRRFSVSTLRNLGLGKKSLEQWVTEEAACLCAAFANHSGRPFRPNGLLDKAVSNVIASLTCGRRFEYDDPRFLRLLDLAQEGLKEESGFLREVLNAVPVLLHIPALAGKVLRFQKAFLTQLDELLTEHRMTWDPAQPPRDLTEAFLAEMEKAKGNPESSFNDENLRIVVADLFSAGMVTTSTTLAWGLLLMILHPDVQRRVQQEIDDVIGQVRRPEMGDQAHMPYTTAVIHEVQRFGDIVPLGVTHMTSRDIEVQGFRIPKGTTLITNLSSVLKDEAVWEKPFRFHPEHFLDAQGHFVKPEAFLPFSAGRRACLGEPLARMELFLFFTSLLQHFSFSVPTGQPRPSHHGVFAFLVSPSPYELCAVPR

Cc1nc(C)c([C@H](OC(C)(C)C)C(=O)O)c(N2CCC(C)(C)CC2)c1-c1ccc(OCCc2ccc(F)cc2)cc1
Papp [1]: 50.5 ×10⁻⁶ cm/s | Activity [2]: Toxic | CC50 at 96 h [3]: ≥ 33500 nM | half-life at 0.5 µM [4]: 1.42 h | clearance [5]: 5.5 mL/min/kg | EC50 [6]: 3.2 nM | EC50 [7]: 2.8 nM | fraction unbound [8]: 0.21 | solubility [9]: < 1 µg/mL | Stability [10]: Stable | Stability [11]: Unstable | Papp [12]: 89.6 ×10⁻⁶ cm/s | IC50 (Cytochrome P450 1A2): ≥ 24300 nM | IC50 (Cytochrome P450 2D6): ≥ 24300 nM | IC50 (Cytochrome P450 3A4): ≥ 24300 nM | clearance [13]: 5.4 mL/min/kg | half-life (CYP): 0.983 h | half-life (UGT [14]): ≥ 2 h | half-life (UGT [15]): ≥ 2 h | half-life (UGT [16]): ≥ 2 h | clearance [17]: 14.5 mL/min/kg | half-life [18]: 6.3 h | half-life [19]: 4.3 h | Vd [20]: 2.4 L/kg | Vd [21]: 1.5 L/kg | Vd [22]: 0.7 L/kg | Cmax [23]: 2960 nM | Tmax [24]: 2.7 h | Tmax [25]: 2 h | AUC [26]: 24.5 µM·h | AUC [27]: 2.23 µM·h | AUC [28]: 18.5 µM·h | bioavailability [29]: 52% | Activity [30]: Toxic | inhibition at 10 µM (L-type calcium channel): 96% | inhibition at 10 µM (sodium channel): 79% | IC50 [31]: 670 nM | MTD [32]: 50 mg/kg/day | Activity [33]: Toxic | Activity [34]: Toxic | Activity [35]: Toxic | Activity [36]: Non-Toxic | Activity [37]: 6%
